Experimental findings from patent US20060159631A1, “Compositions and methods for preventing dental stain” (SMITHKLINE BEECHAM CORPORATION, priority 2003, published 2006) are described below.

The experiment is described as follows: Coffee stain challenge on saliva pellicle-treated HAP discs, rated by visual inspection. To be noted: subjective index of 1 to 10 (1 representing greatest stain), coffee 24 hours, None = 2.0. On the procedure: In a series of experiments, HAP discs were first treated with saliva to generate an artificial pellicle. […] Following a second rinse, the active-treated discs were immersed in a concentrated solution of coffee for a period of 24 hours in order to simulate a dietary stain challenge. After rinsing to remove excess coffee solution, the discs were dried and rated for stain by visual inspection. Using a subjective index of 1 to 10 (1 representing greatest stain), stain intensity is tabluated below.

On to `O=P(O)(O)OP(=O)(O)OP(=O)(O)O` [STP], for which the “Stain Intensity” value (10% (w/w) active) is 5.5.

Regarding “pegulated lauryl phosphate ether [DLP-10]”, the “Stain Intensity” value is 3.5 (2% (w/w) active) and 4.0 (5% (w/w) active).
